Key:
[1] = test system: SET-2 cell line; assay: SET-2 cell line proliferation assay (CellTiter-Glo), combination study; assay type: cell-based; settings: 96 hours, FIG. 2
Method: (§1) Test compounds are dissolved at 10 mM DMSO stock solution. Transfer 45 uL of stock solution to a 384 PP-plate. Perform 3 fold, 10-point dilution via transferring 15 uL compound into 30 μL DMSO by using TECAN (EVO200) liquid handler. The plates are spin at room temperature at 1,000 RPM for 1 minute and shake at a plate shaker for 2 minutes. Transfer Compound A and Compound B of diluted compound from compound source plate into the cell plate by using liquid handler Echo665. Harvest the cells from flask into cell culture medium and then count the cell number. Dilute the cells with culture medium to the desired density and 40 μL of cell suspension is added into 384-well plate contain compound. Low control is adding cell culture medium. The final seeding density for SET-2 and BaF3-EPOR-JAK2V617F cell lines are 2,000 cells/well and 1000 cells/well respectively. Cover the plates with lid and mix the plate on orbital shaker (700-900 rpm) for 1 min, transfer the plates into 37° C. 5% CO2 incubator for 4 days culture. After compound treatment for 96 hours, remove the plate from incubators and equilibrated at room temperature for 15 minutes. Add CellTiter-Glo reagent into each well.
(§2) Place the plate on an orbital shaker, and shake at 500-700 rpm to facilitate cell lysis and ATP extraction from the cells. Measure luminescence after 5-10 minutes using BMG.

[2] = test system: BaF3-EPOR-JAK2V617F cell line; assay: BaF3-JAK2(V617F)-EPOR cell line proliferation assay (CellTiter-Glo), combination study; assay type: cell-based; settings: 96 hours, FIG. 1
Method: as §1, §2

[3] = in combination with Ruxolitinib

Cn1ccn(-c2ccc(-c3cc(F)cc(-c4cccc(N5CCN(C(C)(C)C)CC5)c4)c3O)cc2Cl)c1=O [Compound I-1, 1-(3″-(4-(tert-butyl)piperazin-1-yl)-3-chloro-5′-fluoro-2′-hydroxy-[1,1′:3′,1″-terphenyl]-4-yl)-3-methyl-1,3-dihydro-2H-imidazol-2-one]
suppresses proliferation: proliferation of the SET-2 cell line ([1]; compound alone) | proliferation of the SET-2 cell line [1, 3] | proliferation of the BaF3-EPOR-JAK2V617F cell line ([2]; compound alone) | proliferation of the BaF3-EPOR-JAK2V617F cell line [2, 3]

From patent publication US20240226096A1, “TREATMENT OF MYELOPROLIFERATIVE DISEASES AND DISORDERS WITH INHIBITORS OF BET FAMILY BDII BROMODOMAIN” (POSEIDON INNOVATION 1, INC., priority 2022, published 2024)
